The term IC50 denotes the concentration needed to halve the response being measured. Broadly, the pIC50 is the IC50 on a negative log10 scale, so that one unit is a factor of ten.

This passage reports IC50 results from patent US10329302B2, “Bicyclic-fused heteroaryl or aryl compounds” (Pfizer Inc., priority 2014, dated 2019).

pIC50: −log10 of the molar value. Like-named read-outs stand apart in the source and are kept apart here.

For experiment [1], the system named is R848-induced TNFα production by human peripheral blood mononuclear cells (PBMCs). The experiment is described as follows: R848 Induced TNFα in Human PBMC Assay. It is filed as cell-based. As to conditions: Homo sapiens, PBMC, 3 h, read-out: R848-induced TNFa PBMC IC50 (nM).
Description: This protocol is for R848-induced TNFα production by human peripheral blood mononuclear cells (PBMCs). […] The assay is used to assess cell-based potency of small molecule inhibitors of IRAK4 in the absence of serum.
The PBMCs in the interphase layer were collected and washed with PBS via centrifugation multiple times until the supernatant is clear. The purified PBMCs were re-suspended in RPMI (Roswell Park Memorial Institute) media (Sigma-Aldrich).
For the assay, a compound dilution plate containing a top concentration of 4 mM compound in DMSO was serially diluted 4-fold for 11 times. 250 nL of the compound dilution plate was spotted into a 384-well, flat bottom with lid, TC-treated, black with clear bottom, sterile, polystyrene plate (Corning Life Sciences).
10 μL of anti-TNFα antibody labeled with MSD SULFO-TAG at 50 μg/mL was added to each well and allowed to incubate overnight at 4° C.
For experiment [2], the target named is human IRAK4 FL (Full Length) (Homo sapiens (Human), UniProt Q9NWZ3). In words: IRAK4 Enzymatic DELFIA Assay, Protocol A. It is filed as biochemical.
Sequence of human IRAK4 FL (Full Length) (Q9NWZ3 whole entry): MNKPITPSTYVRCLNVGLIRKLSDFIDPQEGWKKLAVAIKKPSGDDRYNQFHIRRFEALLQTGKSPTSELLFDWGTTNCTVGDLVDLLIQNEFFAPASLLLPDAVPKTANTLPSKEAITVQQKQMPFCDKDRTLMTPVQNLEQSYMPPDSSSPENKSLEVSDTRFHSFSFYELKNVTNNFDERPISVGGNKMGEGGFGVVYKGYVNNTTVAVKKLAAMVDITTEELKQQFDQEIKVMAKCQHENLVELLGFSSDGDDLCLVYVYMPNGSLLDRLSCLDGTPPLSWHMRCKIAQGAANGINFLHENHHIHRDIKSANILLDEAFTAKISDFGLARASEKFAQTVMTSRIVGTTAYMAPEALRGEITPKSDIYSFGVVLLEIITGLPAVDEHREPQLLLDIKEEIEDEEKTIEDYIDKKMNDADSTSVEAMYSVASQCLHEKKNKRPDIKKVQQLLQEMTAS
The mark [3] stands for this setting: human IRAK4 FL, 0.6 mM ATP (KM), read-out: IRAK4 DELFIA Protocol A IC50.

In the case of `COc1cc2c(OC[C@@H]3C[C@@](F)(CF)C(=O)N3)nccc2cc1C(N)=O` [Example 215, 1-{[(2S,4S)-4-fluoro-4-(fluoromethyl)-5-oxopyrrolidin-2-yl]methoxy}-7-methoxyisoquinoline-6-carboxamide], the IC50 in experiment [1] is 35 nM. In experiment [2], this compound had a pIC50 of 8.77.

On to `COc1cc2c(OC[C@H]3NC(=O)C[C@H]3C)cccc2cc1C(N)=O` [Example 216, 3-methoxy-5-{[(2S,3R)-3-methyl-5-oxopyrrolidin-2-yl]methoxy}naphthalene-2-carboxamide], for which, in experiment [1], the IC50 is 27 nM. The pIC50 in experiment [2] (setting [3]) is 9.40.

Take `COc1cc2c(OC[C@H]3NC(=O)[C@@H](F)[C@H]3C)cccc2cc1C(N)=O` [Example 218, 5-{[(2S,3S,4S)-4-fluoro-3-methyl-5-oxopyrrolidin-2-yl]methoxy}-3-methoxynaphthalene-2-carboxamide]: the IC50 in experiment [1] was determined as 11 nM. Moreover, in experiment [2] (setting [3]), the pIC50 is 9.52.

In the case of `CC(C)Oc1cc2c(OC[C@H]3NC(=O)C[C@H]3C)nccc2cc1C(N)=O` [Example 219, 1-{[(2S,3R)-3-methyl-5-oxopyrrolidin-2-yl]methoxy}-7-(propan-2-yloxy)isoquinoline-6-carboxamide], the IC50 in experiment [1] is 65 nM. Besides, the pIC50 in experiment [2] (setting [3]) was 8.77.

On to `COc1cc2c(OC[C@@H]3C[C@@H](CC#N)C(=O)N3)nccc2cc1C(N)=O` [Example 225, 1-{[(2S,4S)-4-(cyanomethyl)-5-oxopyrrolidin-2-yl]methoxy}-7-methoxyisoquinoline-6-carboxamide], for which the IC50 in experiment [1] came to 155 nM. The pIC50 in experiment [2] (setting [3]) was 8.47.

Take `COc1cc2c(OC[C@H]3NC(=O)O[C@@H]3C)nccc2cc1C(N)=O` [Example 227, 7-methoxy-1-{[(4R,5R)-5-methyl-2-oxo-1,3-oxazolidin-4-yl]methoxy}isoquinoline-6-carboxamide]: the IC50 in experiment [1] came to 749 nM. In addition, in experiment [2] (setting [3]), the pIC50 is 7.72.

Take `COc1cc2c(OC[C@H]3NC(=O)O[C@@H]3C)cccc2cc1C(N)=O` [Example 228, 3-methoxy-5-{[(4R,5R)-5-methyl-2-oxo-1,3-oxazolidin-4-yl]methoxy}naphthalene-2-carboxamide]: in experiment [1], the IC50 worked out at 118 nM. In addition, the pIC50 in experiment [2] (setting [3]) is 8.38.

As to `COc1cc2c(OC[C@H]3COC(=O)N3)nccc2cc1C(N)=O` [Example 229, 7-methoxy-1-{[(4S)-2-oxo-1,3-oxazolidin-4-yl]methoxy}isoquinoline-6-carboxamide], the IC50 in experiment [1] was 6300 nM. In experiment [2] (setting [3]), the pIC50 is 5.45.

Take `COc1cc2c(OC[C@@H]3COC(=O)N3)nccc2cc1C(N)=O` [Example 230, 7-methoxy-1-{[(4R)-2-oxo-1,3-oxazolidin-4-yl]methoxy}isoquinoline-6-carboxamide]: the IC50 in experiment [1] came out at 199 nM. Further, in experiment [2] (setting [3]), the pIC50 was 8.15.

`COc1cc2c(OC[C@@H]3C[C@H](OC)C(=O)N3)cccc2cc1C(N)=O` [Example 231, 3-methoxy-5-{[(2S,4S)-4-methoxy-5-oxopyrrolidin-2-yl]methoxy}naphthalene-2-carboxamide]: the IC50 in experiment [1] stood at 509 nM. The compound further showed a pIC50 in experiment [2] of 7.17.

Take `COc1cc2c(OC[C@@H]3C[C@@H](OC)C(=O)N3)cccc2cc1C(N)=O` [Example 232, 3-methoxy-5-{[(2S,4R)-4-methoxy-5-oxopyrrolidin-2-yl]methoxy}naphthalene-2-carboxamide]: in experiment [1], the IC50 was 261 nM. The pIC50 in experiment [2] (setting [3]) is 7.70.

On to `COc1cc2c(OC[C@@H]3COC(=O)N3)cccc2cc1C(N)=O` [Example 233, 3-methoxy-5-{[(4R)-2-oxo-1,3-oxazolidin-4-yl]methoxy}naphthalene-2-carboxamide], for which the IC50 in experiment [1] is 47 nM. The pIC50 in experiment [2] (setting [3]) is 9.52.

In the case of `COc1cc2c(OC[C@H]3NC(=O)O[C@H]3C)cccc2cc1C(N)=O` [Example 234, 3-methoxy-5-{[(4R,5S)-5-methyl-2-oxo-1,3-oxazolidin-4-yl]methoxy}naphthalene-2-carboxamide], the IC50 in experiment [1] is 45 nM. Also, in experiment [2] (setting [3]), the pIC50 was 8.72.

With `COc1cc2c(OC[C@H]3CNC(=O)O3)nccc2cc1C(N)=O` [Example 235, 7-methoxy-1-{[(5R)-2-oxo-1,3-oxazolidin-5-yl]methoxy}isoquinoline-6-carboxamide], the IC50 in experiment [1] was 1090 nM. Besides, in experiment [2] (setting [3]), the pIC50 is 7.01.

For `COc1cc2c(OC[C@H]3NC(=O)O[C@H]3C)nccc2cc1C(N)=O` [Example 236, 7-methoxy-1-{[(4R,5S)-5-methyl-2-oxo-1,3-oxazolidin-4-yl]methoxy}isoquinoline-6-carboxamide], the IC50 in experiment [1] stood at 125 nM. The negative logarithm of the IC50 (pIC50) in experiment [2] (setting [3]) is 8.08.

For the compound `COc1cc2c(OC[C@H]3NC(=O)[C@](C)(F)[C@H]3C)nccc2cc1C(N)=O` [Example 237, 1-{[(2S,3S,4R)-4-fluoro-3,4-dimethyl-5-oxopyrrolidin-2-yl]methoxy}-7-methoxyisoquinoline-6-carboxamide], the IC50 in experiment [1] amounted to 1080 nM. Also, the pIC50 in experiment [2] (setting [3]) was 6.53.

With `COc1cc2c(OC[C@H]3NC(=O)[C@@](C)(F)[C@H]3C)nccc2cc1C(N)=O` [Example 238, 1-{[(2S,3S,4S)-4-fluoro-3,4-dimethyl-5-oxopyrrolidin-2-yl]methoxy}-7-methoxyisoquinoline-6-carboxamide], the half-inhibitory concentration (IC50) in experiment [1] came to 45 nM. Besides, the pIC50 in experiment [2] (setting [3]) was 8.43.

As to `COc1cc2c(OC[C@@H]3C[C@H](C)C(=O)N3)nccc2cc1C(N)=O` [Example 242, 7-methoxy-1-{[(2S,4S)-4-methyl-5-oxopyrrolidin-2-yl]methoxy}isoquinoline-6-carboxamide], in experiment [1], the IC50 came to 7250 nM. The pIC50 in experiment [2] (setting [3]) was 6.58.

In the case of `COc1cc2c(OC[C@@H]3C[C@@H](C)C(=O)N3)nccc2cc1C(N)=O` [Example 243, 7-methoxy-1-{[(2S,4R)-4-methyl-5-oxopyrrolidin-2-yl]methoxy}isoquinoline-6-carboxamide], the IC50 in experiment [1] stood at 713 nM. Moreover, the pIC50 in experiment [2] (setting [3]) is 6.69.

`COc1cc2c(OC[C@@H]3CC4(CC4)C(=O)N3)nccc2cc1C(N)=O` [Example 245, 7-methoxy-1-{[(6S)-4-oxo-5-azaspiro[2.4]hept-6-yl]methoxy}isoquinoline-6-carboxamide]: the IC50 in experiment [1] stood at 529 nM. Further, the pIC50 in experiment [2] (setting [3]) is 7.54.

Consider `COc1cc2c(OC[C@H]3NC(=O)C[C@@H]3CF)nccc2cc1C(N)=O` [Example 249, 1-{[(2S,3S)-3-(fluoromethyl)-5-oxopyrrolidin-2-yl]methoxy}-7-methoxyisoquinoline-6-carboxamide], for which, in experiment [1], the IC50 was 764 nM. Further, the pIC50 in experiment [2] (setting [3]) is 7.70.

With `COc1cc2c(OC[C@H]3NC(=O)[C@@H](F)[C@H]3C)ccnc2cc1C(N)=O` [Example 250, 4-{[(2S,3S,4S)-4-fluoro-3-methyl-5-oxopyrrolidin-2-yl]methoxy}-6-methoxyquinoline-7-carboxamide], the 50% inhibitory concentration (IC50) in experiment [1] is 144 nM. Moreover, in experiment [2] (setting [3]), the pIC50 was 9.22.

In the case of `C=C[C@@H]1CC(=O)N[C@@H]1COc1nccc2cc(C(N)=O)c(OC)cc12` [Example 251, 1-{[(2S,3S)-3-ethenyl-5-oxopyrrolidin-2-yl]methoxy}-7-methoxyisoquinoline-6-carboxamide], the IC50 in experiment [1] was 72 nM. The pIC50 in experiment [2] (setting [3]) is 8.47.

`COc1cc2c(OC[C@@H]3C[C@H](F)C(=O)N3)nccc2cc1C(N)=O` [Example 252, 1-{[(2S,4S)-4-fluoro-5-oxopyrrolidin-2-yl]methoxy}-7-methoxyisoquinoline-6-carboxamide]: in experiment [1], the IC50 amounted to 40 nM. Moreover, in experiment [2] (setting [3]), the pIC50 was 9.05.

On to `COc1cc2c(OC[C@@H]3C[C@@H](F)C(=O)N3)nccc2cc1C(N)=O` [Example 253, 1-{[(2S,4R)-4-fluoro-5-oxopyrrolidin-2-yl]methoxy}-7-methoxyisoquinoline-6-carboxamide], for which the IC50 in experiment [1] stood at 122 nM. Further, in experiment [2] (setting [3]), the pIC50 was 8.59.

As for `CC[C@@]1(F)C[C@@H](COc2nccc3cc(C(N)=O)c(OC)cc23)NC1=O` [Example 256, 1-{[(2S,4R)-4-ethyl-4-fluoro-5-oxopyrrolidin-2-yl]methoxy}-7-methoxyisoquinoline-6-carboxamide], in experiment [1], the IC50 turned out to be 5620 nM. Also, the pIC50 in experiment [2] (setting [3]) is 5.70.

On to `CC[C@]1(F)C[C@@H](COc2nccc3cc(C(N)=O)c(OC)cc23)NC1=O` [Example 257, 1-{[(2S,4S)-4-ethyl-4-fluoro-5-oxopyrrolidin-2-yl]methoxy}-7-methoxyisoquinoline-6-carboxamide], for which the IC50 in experiment [1] worked out at 60 nM. For the same compound, the pIC50 in experiment [2] (setting [3]) is 8.17.

With `COc1cc2c(OC[C@@H]3CC(Cc4ccccc4)C(=O)N3)nccc2cc1C(N)=O` (stereo partly drawn) [Example 258, 1-{[(2S)-4-benzyl-5-oxopyrrolidin-2-yl]methoxy}-7-methoxyisoquinoline-6-carboxamide], the IC50 in experiment [1] was 2930 nM. For the same compound, in experiment [2] (setting [3]), the pIC50 was 6.85.

In the case of `CC[C@]1(F)C[C@@H](COc2ccnc3cc(C(N)=O)c(OC)cc23)NC1=O` [Example 259, 4-{[(2S,4S)-4-ethyl-4-fluoro-5-oxopyrrolidin-2-yl]methoxy}-6-methoxyquinoline-7-carboxamide], the IC50 in experiment [1] was 120 nM. The pIC50 in experiment [2] (setting [3]) is 8.51.

For the compound `CC[C@@]1(F)C[C@@H](COc2ccnc3cc(C(N)=O)c(OC)cc23)NC1=O` [Example 260, 4-{[(2S,4R)-4-ethyl-4-fluoro-5-oxopyrrolidin-2-yl]methoxy}-6-methoxyquinoline-7-carboxamide], the IC50 in experiment [1] is 6280 nM. The negative logarithm of the IC50 (pIC50) in experiment [2] (setting [3]) is 6.69.

`COc1cc2c(OC[C@H]3NC(=O)[C@H]4[C@@H]3C4(C)C)nccc2cc1C(N)=O` [Example 263, 1-{[(1R,2S,5S)-6,6-dimethyl-4-oxo-3-azabicyclo[3.1.0]hex-2-yl]methoxy}-7-methoxyisoquinoline-6-carboxamide]: in experiment [1], the IC50 turned out to be 496 nM. The pIC50 in experiment [2] (setting [3]) is 7.10.

For the compound `COc1cc2c(OCC3(C)COC(=O)N3)nccc2cc1C(N)=O` (stereo not shown) [Example 266, 7-methoxy-1-[(4-methyl-2-oxo-1,3-oxazolidin-4-yl)methoxy]isoquinoline-6-carboxamide], the IC50 in experiment [1] was found to be 394 nM. Also, in experiment [2] (setting [3]), the pIC50 is 7.13.
